Earlier results on one compound are cited in patent US20250255804A1, “LIQUID INJECTABLE COMPOSITIONS OF LURBINECTEDIN” (DR. REDDY’S LABORATORIES LIMITED, priority 2024, published 2025).

For the data set the following is noted: solubility increases at acidic pH.

On to `COc1ccc2[nH]c3c(c2c1)CCN[C@]31CS[C@@H]2c3c(OC(C)=O)c(C)c4c(c3[C@H](COC1=O)N1[C@@H]2[C@H]2c3c(cc(C)c(OC)c3O)C[C@@H]([C@@H]1O)N2C)OCO4` [lurbinectedin, Lurbinectedin], for which the solubility in water result is “insoluble or practically insoluble in water”.
